Target: T1, JNK1 (Homo sapiens, UniProt P45983)
T1 construct: purchased Carna Biosciences
Assay: JNK1 biochemical assays (one or more of: time resolved fluorescence, Z'-LYTE Cascade, radioactive)
Details: one or more of the JNK1 biochemical assays; read-out: Act. Level (JNK1 IC50 activity level)

T1 sequence (P45983 whole entry): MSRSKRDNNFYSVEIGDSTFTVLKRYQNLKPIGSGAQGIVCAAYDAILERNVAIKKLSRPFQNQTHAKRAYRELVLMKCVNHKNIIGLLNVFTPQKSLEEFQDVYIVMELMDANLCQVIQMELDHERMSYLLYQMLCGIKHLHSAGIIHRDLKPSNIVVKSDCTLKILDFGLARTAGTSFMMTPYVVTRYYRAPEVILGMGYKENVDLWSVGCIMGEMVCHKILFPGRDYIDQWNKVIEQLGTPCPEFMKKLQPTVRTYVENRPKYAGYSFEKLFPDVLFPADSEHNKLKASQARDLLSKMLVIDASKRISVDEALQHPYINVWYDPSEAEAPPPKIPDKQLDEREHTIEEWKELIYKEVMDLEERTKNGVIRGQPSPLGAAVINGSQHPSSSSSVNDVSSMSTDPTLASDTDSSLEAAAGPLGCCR

| Compound | IC50 [nM] |
| --- | --- |
| C[C@@H](Nc1nc(N[C@H]2CC[C@H](OC3CC3)CC2)ncc1C(N)=O)C1CC1 [Example 410, 2-((1r,4R)-4-cyclopropoxycyclohexylamino)-4-((R)-1-cyclopropylethylamino)pyrimidine-5-carboxamide] | < 200 |
| CCO[C@H]1CC[C@H](Nc2ncc(C(N)=O)c(N[C@H](C)C3CC3)n2)CC1 [Example 411, 4-((R)-1-cyclopropylethylamino)-2-((1r,4R)-4-ethoxycyclohexylamino)pyrimidine-5-carboxamide] | < 200 |
| CC1(Nc2nc(NC34CCC(O)(CC3)CC4)ncc2C(N)=O)CCC1 [Example 412, 2-(4-hydroxybicyclo[2.2.2]octan-1-ylamino)-4-(1-methylcyclobutylamino)pyrimidine-5-carboxamide] | < 200 |
| CC1(Nc2nc(NC3CCOCC3)ncc2C(N)=O)CCC1 [Example 413, 4-(1-methylcyclobutylamino)-2-(tetrahydro-2H-pyran-4-ylamino)pyrimidine-5-carboxamide] | < 200 |
| CN(C)C(=O)[C@H]1CC[C@H](Nc2ncc(C(N)=O)c(NC3(C)CCC3)n2)CC1 [Example 414, 2-((1r,4r)-4-(dimethylcarbamoyl)cyclohexylamino)-4-(1-methylcyclobutylamino)pyrimidine-5-carboxamide] | < 200 |
| CC1(Nc2nc(N[C@H]3CC[C@H](OCC(F)(F)F)CC3)ncc2C(N)=O)CCC1 [Example 415, 4-(1-methylcyclobutylamino)-2-((1r,4r)-4-(2,2,2-trifluoroethoxy)cyclohexylamino)pyrimidine-5-carboxamide] | < 200 |
| CC1(Nc2nc(N[C@H]3CC[C@H](OC(F)F)CC3)ncc2C(N)=O)CCC1 [Example 416, 2-((1r,4r)-4-(difluoromethoxy)cyclohexylamino)-4-(1-methylcyclobutylamino)pyrimidine-5-carboxamide] | < 200 |
| NC(=O)c1cnc(NC23CCC(O)(CC2)CC3)nc1NC12CC(C1)C2 [Example 417, 4-(bicyclo[1.1.1]pentan-1-ylamino)-2-(4-hydroxybicyclo[2.2.2]octan-1-ylamino)pyrimidine-5-carboxamide] | < 200 |
| CN(C)C(=O)[C@H]1CC[C@H](Nc2ncc(C(N)=O)c(NC34CC(C3)C4)n2)CC1 [Example 418, 4-(bicyclo[1.1.1]pentan-1-ylamino)-2-((1r,4r)-4-(dimethylcarbamoyl)cyclohexylamino)pyrimidine-5-carboxamide] | < 200 |
| NC(=O)c1cnc(N[C@H]2CC[C@H](OCC(F)(F)F)CC2)nc1NC12CC(C1)C2 [Example 419, 4-(bicyclo[1.1.1]pentan-1-ylamino)-2-((1r,4r)-4-(2,2,2-trifluoroethoxy)cyclohexylamino)pyrimidine-5-carboxamide] | < 200 |
| NC(=O)c1cnc(N[C@H]2CC[C@H](OC(F)F)CC2)nc1NC12CC(C1)C2 [Example 420, 4-(bicyclo[1.1.1]pentan-1-ylamino)-2-((1r,4r)-4-(difluoromethoxy)cyclohexylamino)pyrimidine-5-carboxamide] | < 200 |
| CO[C@H]1CC[C@H](Nc2ncc(C(N)=O)c(N[C@H](C)C3CC3)n2)CC1 [Example 421, 4-((R)-1-cyclopropylethylamino)-2-((1r,4R)-4-methoxycyclohexylamino)pyrimidine-5-carboxamide] | < 200 |
| C[C@@H](Nc1nc(N[C@H]2CCCOC2)ncc1C(N)=O)C1CC1 [Example 422, 4-((R)-1-cyclopropylethylamino)-2-((S)-tetrahydro-2H-pyran-3-ylamino)pyrimidine-5-carboxamide] | < 200 |
| C[C@@H](Nc1nc(N[C@@H]2CCC[C@H](O)C2)ncc1C(N)=O)C1CC1 [Example 423, 4-((R)-1-cyclopropylethylamino)-2-((1R,3S)-3-hydroxycyclohexylamino)pyrimidine-5-carboxamide] | < 200 |
| C[C@@H](Nc1nc(NC2CCOCC2)ncc1C(N)=O)C1CC1 [Example 424, (R)-4-(1-cyclopropylethylamino)-2-(tetrahydro-2H-pyran-4-ylamino)pyrimidine-5-carboxamide] | < 200 |
| C[C@@H](Nc1nc(N[C@H]2CC[C@H](C(=O)N(C)C)CC2)ncc1C(N)=O)C1CC1 [Example 425, 4-((R)-1-cyclopropylethylamino)-2-((1r,4R)-4-(dimethylcarbamoyl)cyclohexylamino)pyrimidine-5-carboxamide] | < 200 |
| C[C@@H](Nc1nc(N[C@H]2CC[C@H](OC(F)F)CC2)ncc1C(N)=O)C1CC1 [Example 426, 4-((R)-1-cyclopropylethylamino)-2-((1r,4R)-4-(difluoromethoxy)cyclohexylamino)pyrimidine-5-carboxamide] | < 200 |
| CC1(C)CCC(Nc2nc(NC34CC(C3)C4)ncc2C(N)=O)CC1O (centres unmarked) [Example 427, 2-(bicyclo[1.1.1]pentan-1-ylamino)-4-(3-hydroxy-4,4-dimethylcyclohexylamino)pyrimidine-5-carboxamide] | 200 to 800 |
| CC1(C)CCC(Nc2nc(NC3CCC3)ncc2C(N)=O)CC1O (centres unmarked) [Example 428, 2-(cyclobutylamino)-4-(3-hydroxy-4,4-dimethylcyclohexylamino)pyrimidine-5-carboxamide] | < 200 |

| Compound | IC50 [nM] |
| --- | --- |
| CC1(C)CCC(Nc2nc(NC3CCC3)ncc2C(N)=O)CC1O (centres unmarked) [Example 429, 2-(cyclobutylamino)-4-(3-hydroxy-4,4-dimethylcyclohexylamino)pyrimidine-5-carboxamide] | < 200 |
| CC1(Nc2ncc(C(N)=O)c(NC3CCC(C)(C)C(O)C3)n2)CC1 (centres unmarked) [Example 430, 4-(3-hydroxy-4,4-dimethylcyclohexylamino)-2-(1-methylcyclopropylamino)pyrimidine-5-carboxamide] | < 200 |
| CC1(Nc2ncc(C(N)=O)c(NC3CCC(C)(C)C(O)C3)n2)CC1 (centres unmarked) [Example 431, 4-(3-hydroxy-4,4-dimethylcyclohexylamino)-2-(1-methylcyclopropylamino)pyrimidine-5-carboxamide] | < 200 |
| CC1(C)CCC(Nc2nc(NC34CC(C3)C4)ncc2C(N)=O)CC1O (centres unmarked) [Example 432, 2-(bicyclo[1.1.1]pentan-1-ylamino)-4-(3-hydroxy-4,4-dimethylcyclohexylamino)pyrimidine-5-carboxamide] | < 200 |
| NC(=O)c1cnc(N[C@@H]2CCC[C@H](O)C2)nc1NC1CCC1 [Example 433, 4-(cyclobutylamino)-2-((1R,3S)-3-hydroxycyclohexylamino)pyrimidine-5-carboxamide] | < 200 |
| NC(=O)c1cnc(N[C@H]2CC[C@H](OC3CC3)CC2)nc1NC1CCC1 [Example 434, 4-(cyclobutylamino)-2-((1r,4r)-4-cyclopropoxycyclohexylamino)pyrimidine-5-carboxamide] | < 200 |
| NC(=O)c1cnc(NC2CCOCC2)nc1NC1CCC1 [Example 435, 4-(cyclobutylamino)-2-(tetrahydro-2H-pyran-4-ylamino)pyrimidine-5-carboxamide] | < 200 |
| NC(=O)c1cnc(N[C@H]2CC[C@H](OC(F)F)CC2)nc1NC1CCC1 [Example 436, 4-(cyclobutylamino)-2-((1r,4r)-4-(difluoromethoxy)cyclohexylamino)pyrimidine-5-carboxamide] | < 200 |
| CN(C)C(=O)[C@H]1CC[C@H](Nc2ncc(C(N)=O)c(NC3CCC3)n2)CC1 [Example 437, 4-(cyclobutylamino)-2-((1r,4r)-4-(dimethylcarbamoyl)cyclohexylamino)pyrimidine-5-carboxamide] | < 200 |
| CC1(Nc2ncc(C(N)=O)c(N[C@@H]3CCC[C@H](O)C3)n2)CC1 [Example 438, 4-((1R,3S)-3-hydroxycyclohexylamino)-2-(1-methylcyclopropylamino)pyrimidine-5-carboxamide] | < 200 |
| NC(=O)c1cnc(NC2CCCC2)nc1N[C@@H]1CCC[C@H](O)C1 [Example 439, 2-(cyclopentylamino)-4-((1R,3S)-3-hydroxycyclohexylamino)pyrimidine-5-carboxamide] | < 200 |
| NC(=O)c1cnc(N[C@H]2CC[C@H](O)CC2)nc1NC12CC(C(F)(F)F)(C1)C2 [Example 440, 2-((1r,4r)-4-hydroxycyclohexylamino)-4-(3-(trifluoromethyl)bicyclo[1.1.1]pentan-1-ylamino)pyrimidine-5-carboxamide] | < 200 |
| C[C@@H]1CC[C@@H](Nc2nc(NC34CC(C(F)(F)F)(C3)C4)ncc2C(N)=O)C[C@H]1O [Example 441, 4-((1R,3R,4R)-3-hydroxy-4-methylcyclohexylamino)-2-(3-(trifluoromethyl)bicyclo[1.1.1]pentan-1-ylamino)pyrimidine-5-carboxamide] | < 200 |
| CC12CC(Nc3nc(N[C@H]4CC[C@H](OC5CC5)CC4)ncc3C(N)=O)(C1)C2 [Example 442, 2-((1r,4r)-4-cyclopropoxycyclohexylamino)-4-(3-methylbicyclo[1.1.1]pentan-1-ylamino)pyrimidine-5-carboxamide] | < 200 |
| CCO[C@H]1CC[C@H](Nc2ncc(C(N)=O)c(NC34CC(C)(C3)C4)n2)CC1 [Example 443, 2-((1r,4r)-4-ethoxycyclohexylamino)-4-(3-methylbicyclo[1.1.1]pentan-1-ylamino)pyrimidine-5-carboxamide] | < 200 |
| C[C@@H]1CC[C@@H](Nc2nc(NC3CC(F)(F)C3)ncc2C(N)=O)C[C@H]1O [Example 444, 2-(3,3-difluorocyclobutylamino)-4-((1R,3R,4R)-3-hydroxy-4-methylcyclohexylamino)pyrimidine-5-carboxamide] | < 200 |
| CC(C)(Nc1nc(NC23CCC(O)(CC2)C3)ncc1C(N)=O)C1CC1 [Example 445, 4-(2-cyclopropylpropan-2-ylamino)-2-(4-hydroxybicyclo[2.2.1]heptan-1-ylamino)pyrimidine-5-carboxamide] | < 200 |
| CC1(Nc2nc(NC34CCC(O)(CC3)C4)ncc2C(N)=O)CCCC1 [Example 446, 2-(4-hydroxybicyclo[2.2.1]heptan-1-ylamino)-4-(1-methylcyclopentylamino)pyrimidine-5-carboxamide] | < 200 |
| NC(=O)c1cnc(NC23CCC(O)(CC2)C3)nc1NC1CCC1 [Example 447, 4-(cyclobutylamino)-2-(4-hydroxybicyclo[2.2.1]heptan-1-ylamino)pyrimidine-5-carboxamide] | < 200 |

From patent US12129237B2, “Substituted diaminocarboxamide and diaminocarbonitrile pyrimidines, compositions thereof, and methods of treatment therewith” (SIGNAL PHARMACEUTICALS, LLC, priority 2011, dated 2024)
